# pEC50: −log10 of the molar value. Where “and” joins values, the source holds several entries; their conditions need not be identical. Equal entries are not always repeated. Where two headings read alike, the source gives them in different places.
# What was measured:
# Type in all cases: cell-based
# [1] = CellTiter-Glo cell viability; settings: human, BxPC-3 cells, BXPC3, 4 day, read-out: mean_norm (normalized viability)
# Protocol: Cells were plated in 384-well plates (typically 1,500 cells per well) with varying concentrations of compounds, with a total volume of 50 μl per well. CTG reagent was added (25 μl) to the solutions, mixed and read out using an EnVision 2105 multimode plate reader.
# parental 293T cells [2] = assay: caspase 3/7 glo; settings: for mean_norm (caspase 3/7 glo): Cell_Line WT, normalized to Concentration 0; for raw caspase 3/7 glo signal, single replicate: WT
# Protocol: (§1) Cells were plated in 384-well plates (typically 1,500 cells per well) with varying concentrations of compounds with a total volume of 50 μl per well. After 1 day, caspase 3/7 glo reagent (Promega) was added following the manufacturer’s protocol and read out using an EnVision 2105 multimode plate reader.
# [3] = test system: Halo–p53-Y220C ΔTAD–mCherry 293T cells; assay: caspase 3/7 glo; settings: for mean_norm (caspase 3/7 glo): Cell_Line Y220C, normalized to Concentration 0; for raw caspase 3/7 glo signal, single replicate: Y220C
# Protocol: as §1
# parental 293T cells [4] = assay: annexin–PI staining; settings: for P3_avg (P3 = early apoptotic) / P5_avg (P5 = late apoptotic): Cell_Line WT, proportion of cells; for avgprop_P3 / avgprop_P4 / avgprop_P5 / avgprop_P2 / P2_viable / P3_AnnexinPos_PIneg / P4_PIpos_AnnexinNeg / P5_PIpos_Annexinpos / prop_P3 / prop_P4 / prop_P5 / prop_P2: WT; for avgprop_P3: average proportion AnnexinPos PIneg; for avgprop_P4: average proportion PIpos AnnexinNeg; for avgprop_P5: average proportion PIpos Annexinpos; for avgprop_P2: average proportion viable; for P2_viable / P3_AnnexinPos_PIneg / P4_PIpos_AnnexinNeg / P5_PIpos_Annexinpos: event count; for P2_viable / P3_AnnexinPos_PIneg / P4_PIpos_AnnexinNeg / P5_PIpos_Annexinpos / prop_P3 / prop_P4 / prop_P5 / prop_P2: single replicate; for prop_P3: proportion AnnexinPos PIneg; for prop_P4: proportion PIpos AnnexinNeg; for prop_P5: proportion PIpos Annexinpos; for prop_P2: proportion viable
# Protocol: Cells were plated in six-well plates and treated with varying concentrations of compounds for 1 day. Cells were stained with annexin V–AF488 and PI following the manufacturer’s instructions (Thermo Fisher, V13241) and analyzed by flow cytometry (Beckman CytoFLEX LX), using untreated cells to establish gates.
# [5] = test system: Calu-1 cells stably expressing Halo–p53-R273H (FL)–mCherry versus parental Calu-1 cells; assay: flow-cytometry growth competition; settings: 7 days
# Protocol: (§2) Cells with and without a fluorescent marker (for example, Halo–p53–mCherry) were mixed and the resulting solution was plated in six-well plates or 10-cm dishes at low density; compound was added at varying concentrations. After reaching confluence, cells were passaged and retreated with compound if needed. Otherwise, cells were trypsinized, washed and resuspended in complete growth medium in 96-well plates or tubes for flow cytometry. Untreated cell mixtures were used to establish gates separating the fluorophore^+/− populations. Analysis was conducted on a CytoFLEX LX flow cytometer.
# [6] = test system: Halo–p53-Y220C ΔTAD–mCherry 293T cells versus parental 293T cells; assay: flow-cytometry growth competition; settings: for pEC50: Homo sapiens, HEK-293T; for normalized_mCherry_percentage: Y220C, day 8, normalized to DMSO
# Protocol: as §2
# [7] = test system: MFE319 cells stably expressing sgTP53–Cas9–EGFP versus parental MFE319 cells; assay: flow-cytometry growth competition
# Protocol: as §2
smiles,measurement,setting,value
"CC[C@@H]1C(=O)N(C)c2cnc(Nc3ccc(C(=O)NCCOCCOCCOCCOCCC(=O)N4CCC(Nc5cccc6c5cc(C#CCNc5ccc(S(C)(=O)=O)cc5OC)n6CC(F)(F)F)CC4)cc3OC)nc2N1C1CCCC1 [p53-01, PMV6-PEG4-BI2536]",viability at 4 day,[1]; Concentration 39.0625,96%
same,viability at 4 day,[1]; Concentration 78.125,94.9%
same,viability at 4 day,[1]; Concentration 156.25,99%
same,viability at 4 day,[1]; Concentration 312.5,91%
same,viability at 4 day,[1]; Concentration 10000,44%
same,viability at 4 day,[1]; Concentration 20000,25.6%
same,mean_norm (caspase 3/7 glo),parental 293T cells [2]; Concentration 19.5312,1.032
same,mean_norm (caspase 3/7 glo),parental 293T cells [2]; Concentration 39.0625,0.9788
same,mean_norm (caspase 3/7 glo),parental 293T cells [2]; Concentration 78.125,1.009
same,mean_norm (caspase 3/7 glo),parental 293T cells [2]; Concentration 156.25,0.9403
same,mean_norm (caspase 3/7 glo),parental 293T cells [2]; Concentration 312.5,0.9336
same,mean_norm (caspase 3/7 glo),parental 293T cells [2]; Concentration 625,0.8748
same,mean_norm (caspase 3/7 glo),parental 293T cells [2]; Concentration 1250,1.007
same,mean_norm (caspase 3/7 glo),parental 293T cells [2]; Concentration 2500,1.185
same,mean_norm (caspase 3/7 glo),parental 293T cells [2]; Concentration 5000,1.4986
same,mean_norm (caspase 3/7 glo),parental 293T cells [2]; Concentration 10000,1.763
same,"raw caspase 3/7 glo signal, single replicate",parental 293T cells [2]; Concentration 19.5312,133494 and 117337 and 138819 and 114789
same,"raw caspase 3/7 glo signal, single replicate",parental 293T cells [2]; Concentration 39.0625,123804 and 109630 and 139391 and 105438
same,"raw caspase 3/7 glo signal, single replicate",parental 293T cells [2]; Concentration 78.125,123731 and 127401 and 120215 and 121439
same,"raw caspase 3/7 glo signal, single replicate",parental 293T cells [2]; Concentration 156.25,127240 and 99863 and 130913 and 101408
same,"raw caspase 3/7 glo signal, single replicate",parental 293T cells [2]; Concentration 312.5,120672 and 107314 and 116046 and 112110
same,"raw caspase 3/7 glo signal, single replicate",parental 293T cells [2]; Concentration 625,120568 and 89735 and 125147 and 91991
same,"raw caspase 3/7 glo signal, single replicate",parental 293T cells [2]; Concentration 1250,122108 and 116864 and 133954 and 118859
same,"raw caspase 3/7 glo signal, single replicate",parental 293T cells [2]; Concentration 2500,139477 and 137713 and 153198 and 148518
same,"raw caspase 3/7 glo signal, single replicate",parental 293T cells [2]; Concentration 5000,207130 and 170945 and 175970 and 178176
same,"raw caspase 3/7 glo signal, single replicate",parental 293T cells [2]; Concentration 10000,233886 and 204323 and 214988 and 207998
same,mean_norm (caspase 3/7 glo),[3]; Concentration 19.5312,1.044
same,mean_norm (caspase 3/7 glo),[3]; Concentration 39.0625,0.9705
same,mean_norm (caspase 3/7 glo),[3]; Concentration 78.125,0.9927
same,mean_norm (caspase 3/7 glo),[3]; Concentration 156.25,0.9639
same,mean_norm (caspase 3/7 glo),[3]; Concentration 312.5,0.9272
same,mean_norm (caspase 3/7 glo),[3]; Concentration 625,0.8899
same,mean_norm (caspase 3/7 glo),[3]; Concentration 1250,1.234
same,mean_norm (caspase 3/7 glo),[3]; Concentration 2500,2.011
same,mean_norm (caspase 3/7 glo),[3]; Concentration 5000,2.316
same,mean_norm (caspase 3/7 glo),[3]; Concentration 10000,2.222
same,"raw caspase 3/7 glo signal, single replicate",[3]; Concentration 19.5312,122690 and 136337 and 118028 and 144163
same,"raw caspase 3/7 glo signal, single replicate",[3]; Concentration 39.0625,117294 and 127747 and 106194 and 133419
same,"raw caspase 3/7 glo signal, single replicate",[3]; Concentration 78.125,123437 and 120512 and 118467 and 133301
same,"raw caspase 3/7 glo signal, single replicate",[3]; Concentration 156.25,105036 and 125984 and 107588 and 142722
same,"raw caspase 3/7 glo signal, single replicate",[3]; Concentration 312.5,120420 and 114761 and 112118 and 115705
same,"raw caspase 3/7 glo signal, single replicate",[3]; Concentration 625,92711 and 123269 and 91753 and 136660
same,"raw caspase 3/7 glo signal, single replicate",[3]; Concentration 1250,148294 and 147349 and 143892 and 176603
same,"raw caspase 3/7 glo signal, single replicate",[3]; Concentration 2500,271302 and 236256 and 229038 and 267460
same,"raw caspase 3/7 glo signal, single replicate",[3]; Concentration 5000,327582 and 262469 and 277595 and 289089
same,"raw caspase 3/7 glo signal, single replicate",[3]; Concentration 10000,286008 and 259961 and 264959 and 298921
same,induction of apoptosis,"[3]; versus parental 293T, caspase 3/7 glo and annexin–PI, 1 day",differentially induced apoptosis
same,P3_avg (P3 = early apoptotic),parental 293T cells [4]; Concentration 0.75,0.05911
same,P5_avg (P5 = late apoptotic),parental 293T cells [4]; Concentration 0.75,0.02085
same,P3_avg (P3 = early apoptotic),parental 293T cells [4]; Concentration 1.5,0.05067
same,P5_avg (P5 = late apoptotic),parental 293T cells [4]; Concentration 1.5,0.02081
same,avgprop_P3,parental 293T cells [4]; Concentration 0.75,0.05911
same,avgprop_P4,parental 293T cells [4]; Concentration 0.75,0.03071
same,avgprop_P5,parental 293T cells [4]; Concentration 0.75,0.02085
same,avgprop_P2,parental 293T cells [4]; Concentration 0.75,0.8893
same,P2_viable,parental 293T cells [4]; Concentration 0.75,1988 and 1975 and 1922
same,P3_AnnexinPos_PIneg,parental 293T cells [4]; Concentration 0.75,134 and 116 and 141
same,P4_PIpos_AnnexinNeg,parental 293T cells [4]; Concentration 0.75,58 and 71 and 74
same,P5_PIpos_Annexinpos,parental 293T cells [4]; Concentration 0.75,48 and 44 and 46
same,prop_P3,parental 293T cells [4]; Concentration 0.75,0.06014 and 0.05258 and 0.06459
same,prop_P4,parental 293T cells [4]; Concentration 0.75,0.02603 and 0.03218 and 0.0339
same,prop_P5,parental 293T cells [4]; Concentration 0.75,0.02154 and 0.01995 and 0.02107
same,prop_P2,parental 293T cells [4]; Concentration 0.75,0.8923 and 0.8953 and 0.8804
same,avgprop_P3,parental 293T cells [4]; Concentration 1.5,0.05067
same,avgprop_P4,parental 293T cells [4]; Concentration 1.5,0.03243
same,avgprop_P5,parental 293T cells [4]; Concentration 1.5,0.02081
same,avgprop_P2,parental 293T cells [4]; Concentration 1.5,0.8961
same,P2_viable,parental 293T cells [4]; Concentration 1.5,1971 and 1980 and 1990
same,P3_AnnexinPos_PIneg,parental 293T cells [4]; Concentration 1.5,112 and 109 and 115
same,P4_PIpos_AnnexinNeg,parental 293T cells [4]; Concentration 1.5,75 and 68 and 72
same,P5_PIpos_Annexinpos,parental 293T cells [4]; Concentration 1.5,48 and 43 and 47
same,prop_P3,parental 293T cells [4]; Concentration 1.5,0.05077 and 0.04955 and 0.05171
same,prop_P4,parental 293T cells [4]; Concentration 1.5,0.034 and 0.03091 and 0.03237
same,prop_P5,parental 293T cells [4]; Concentration 1.5,0.02176 and 0.01955 and 0.02113
same,prop_P2,parental 293T cells [4]; Concentration 1.5,0.8935 and 0.9 and 0.8948
same,activity in competition,[5],did not observe any activity
same,mCherry_percent,"[6]; 1 uM, 8 days, untreated 39.76",6.93%
same,"Emax, decline in the mCherry^+ fraction",[6]; 8-day competition,21.5 fold
same,pEC50,"[6]; 192 h, 8-day competition, read-out: EC50 growth competition",6.35
same,pEC50,"[6]; 240 h, growth competition analyzed on day 10, n = 3, read-out: Competition EC50",6.07
same,normalized_mCherry_percentage,[6]; 62.5 nM,97.27%
same,normalized_mCherry_percentage,[6]; 125 nM,95.36%
same,normalized_mCherry_percentage,[6]; 250 nM,82.43%
same,normalized_mCherry_percentage,[6]; 500 nM,42.51%
same,normalized_mCherry_percentage,[6]; 1 uM,16.67%
same,normalized_mCherry_percentage,[6]; 2 uM,4.655%
same,selection in growth competition,"[6]; dosed between 250 nM and 2 μM, 8-day",strong selection against p53-Y220C^+ cells
same,"mCherry^+ percentage in competition, replicate","[6]; p53-01 250 nM, untreated 28.89, 29.94, 29.02",3.07 and 3.6 and 3.2
same,decline in mCherry^+ percentage,[6]; p53-01 alone at 250 nM,8.9 fold
same,"merge_avg (growth competition, sheet 4H)",[7]; Concentration (pM) 156250,0.9416
same,"merge_avg (growth competition, sheet 4H)",[7]; Concentration (pM) 312500,0.9268
same,"merge_avg (growth competition, sheet 4H)",[7]; Concentration (pM) 600000,0.9517
same,"merge_avg (growth competition, sheet 4H)",[7]; Concentration (pM) 800000,1.131
same,"merge_avg (growth competition, sheet 4H)",[7]; Concentration (pM) 1000000,1.205
same,"merge_avg (growth competition, sheet 4H)",[7]; Concentration (pM) 1100000,1.344
same,"merge_avg (growth competition, sheet 4H)",[7]; Concentration (pM) 1250000,1.624
same,enrichment of EGFP^+ (TP53-knockout) population,"[7]; day 9, p53-01 at doses between 800 nM and 1.25 μM",significantly enrich an EGFP^+ population
